Measurements published in ChEMBL document CHEMBL3885881, “DrugMatrix”.

Organism: Rattus norvegicus
Assay: DrugMatrix - Regimen: Daily Repeat
Assay type: toxicity, organism-based, Sprague-Dawley
Parameters: regimen Daily Repeat, gender Male, age 6-8 weeks
Conditions: in vivo, po, route oral GAVAGE, vehicle .5 % CMC; for ABSOLUTE BASOPHIL / ABSOLUTE EOSINOPHIL / ABSOLUTE LYMPHOCYTE / ABSOLUTE MONOCYTE / ABSOLUTE SEGMENTED NEUTROPHIL / BASOPHIL / EOSINOPHIL / ERYTHROCYTE COUNT / HEMATOCRIT / HEMOGLOBIN / LEUKOCYTE COUNT / LYMPHOCYTE / MEAN CORPUSCULAR HEMOGLOBIN / MEAN CORPUSCULAR HEMOGLOBIN CONCENTRATION / MEAN CORPUSCULAR VOLUME / MONOCYTE / NEUTROPHIL / NUCLEATED RED BLOOD CELLS / PLATELET COUNT: tissue Blood; for ALANINE AMINOTRANSFERASE / ALBUMIN / ALKALINE PHOSPHATASE / ASPARTATE AMINOTRANSFERASE / BLOOD UREA NITROGEN / CARBON DIOXIDE / CHLORIDE / CHOLESTEROL / CREATINE PHOSPHOKINASE / CREATININE / GLUCOSE / LACTATE DEHYDROGENASE / LIPASE / PHOSPHORUS / POTASSIUM / SODIUM / TOTAL BILIRUBIN / TOTAL PROTEIN / URIC ACID: tissue Plasma
[1] = 0 mg/kg, 72 h, dose level Control, time 3 day
[2] = 0 mg/kg, 120 h, dose level Control, time 5 day
[3] = 1200 mg/kg, 72 h, dose level High, time 3 day

CCC[C@@H]1C[C@@H](C(=O)N[C@@H]([C@H]2O[C@H](SC)[C@H](O)[C@@H](O)[C@H]2O)[C@@H](C)O)N(C)C1 [LINCOMYCIN]
ABSOLUTE BASOPHIL [1]: 0 CELLS/uL
ABSOLUTE EOSINOPHIL [1]: 0 CELLS/uL
ABSOLUTE LYMPHOCYTE [1]: 12269.67 CELLS/uL
ABSOLUTE MONOCYTE [1]: 160.33 CELLS/uL
ABSOLUTE SEGMENTED NEUTROPHIL [1]: 970 CELLS/uL
BASOPHIL [1]: 0%
EOSINOPHIL [1]: 0%
ERYTHROCYTE COUNT [1]: 5.76 x10E6/uL
HEMATOCRIT [1]: 36.57%
HEMOGLOBIN [1]: 14.22 G/DL
LEUKOCYTE COUNT [1]: 13.4 x10E3/uL
LYMPHOCYTE [1]: 91.67%
MEAN CORPUSCULAR HEMOGLOBIN [1]: 24.67 pg
MEAN CORPUSCULAR HEMOGLOBIN CONCENTRATION [1]: 38.85 G/DL
MEAN CORPUSCULAR VOLUME [1]: 63.52 fL
MONOCYTE [1]: 1.17%
NEUTROPHIL [1]: 7.17%
NUCLEATED RED BLOOD CELLS [1]: 0.33 /100WBC
PLATELET COUNT [1]: 1250.83 x10E3/uL
ALANINE AMINOTRANSFERASE [1]: 49.17 u/L
ALBUMIN [1]: 4.33 G/DL
ALKALINE PHOSPHATASE [1]: 378.5 u/L
ASPARTATE AMINOTRANSFERASE [1]: 82.17 u/L
BLOOD UREA NITROGEN [1]: 15 mg/dL
CARBON DIOXIDE [1]: 34.33 mmol/L
CHLORIDE [1]: 99.17 MEQ/L
CHOLESTEROL [1]: 71.17 mg/dL
CREATINE PHOSPHOKINASE [1]: 258.67 u/L
CREATININE [1]: 0.18 mg/dL
GLUCOSE [1]: 142.67 mg/dL
LACTATE DEHYDROGENASE [1]: 154.33 u/L
LIPASE [1]: 9 u/L
PHOSPHORUS [1]: 11.67 mg/dL
POTASSIUM [1]: 7.13 MEQ/L
SODIUM [1]: 142.22 MEQ/L
TOTAL BILIRUBIN [1]: 0.18 mg/dL
TOTAL PROTEIN [1]: 5.77 G/DL
URIC ACID [1]: 1.55 mg/dL
ABSOLUTE BASOPHIL [2]: 0 CELLS/uL
ABSOLUTE EOSINOPHIL [2]: 23.33 CELLS/uL
ABSOLUTE LYMPHOCYTE [2]: 14943.67 CELLS/uL
ABSOLUTE MONOCYTE [2]: 32 CELLS/uL
ABSOLUTE SEGMENTED NEUTROPHIL [2]: 1084.33 CELLS/uL
BASOPHIL [2]: 0%
EOSINOPHIL [2]: 0.17%
ERYTHROCYTE COUNT [2]: 5.71 x10E6/uL
HEMATOCRIT [2]: 35.28%
HEMOGLOBIN [2]: 14.27 G/DL
LEUKOCYTE COUNT [2]: 16.08 x10E3/uL
LYMPHOCYTE [2]: 93%
MEAN CORPUSCULAR HEMOGLOBIN [2]: 25.02 pg
MEAN CORPUSCULAR HEMOGLOBIN CONCENTRATION [2]: 40.43 G/DL
MEAN CORPUSCULAR VOLUME [2]: 61.82 fL
MONOCYTE [2]: 0.17%
NEUTROPHIL [2]: 6.67%
NUCLEATED RED BLOOD CELLS [2]: 0.33 /100WBC
PLATELET COUNT [2]: 1274 x10E3/uL
ALANINE AMINOTRANSFERASE [2]: 54.17 u/L
ALBUMIN [2]: 4.22 G/DL
ALKALINE PHOSPHATASE [2]: 373.17 u/L
ASPARTATE AMINOTRANSFERASE [2]: 81.83 u/L
BLOOD UREA NITROGEN [2]: 16.67 mg/dL
CARBON DIOXIDE [2]: 30.33 mmol/L
CHLORIDE [2]: 99 MEQ/L
CHOLESTEROL [2]: 71 mg/dL
CREATINE PHOSPHOKINASE [2]: 273.5 u/L
CREATININE [2]: 0.22 mg/dL
GLUCOSE [2]: 141.83 mg/dL
LACTATE DEHYDROGENASE [2]: 153.67 u/L
LIPASE [2]: 10.33 u/L
PHOSPHORUS [2]: 11.38 mg/dL
POTASSIUM [2]: 7.08 MEQ/L
SODIUM [2]: 142.75 MEQ/L
TOTAL BILIRUBIN [2]: 0.18 mg/dL
TOTAL PROTEIN [2]: 6.1 G/DL
URIC ACID [2]: 1.67 mg/dL
ABSOLUTE BASOPHIL [3]: 0 CELLS/uL
ABSOLUTE EOSINOPHIL [3]: 0 CELLS/uL
ABSOLUTE LYMPHOCYTE [3]: 14618 CELLS/uL
ABSOLUTE MONOCYTE [3]: 0 CELLS/uL
ABSOLUTE SEGMENTED NEUTROPHIL [3]: 1248.67 CELLS/uL
BASOPHIL [3]: 0%
EOSINOPHIL [3]: 0%
ERYTHROCYTE COUNT [3]: 5.99 x10E6/uL
HEMATOCRIT [3]: 37.8%
HEMOGLOBIN [3]: 15 G/DL
LEUKOCYTE COUNT [3]: 15.87 x10E3/uL
LYMPHOCYTE [3]: 92.33%
MEAN CORPUSCULAR HEMOGLOBIN [3]: 25.1 pg
MEAN CORPUSCULAR HEMOGLOBIN CONCENTRATION [3]: 39.73 G/DL
MEAN CORPUSCULAR VOLUME [3]: 63.2 fL
MONOCYTE [3]: 0%
NEUTROPHIL [3]: 7.67%
NUCLEATED RED BLOOD CELLS [3]: 0 /100WBC
PLATELET COUNT [3]: 1182.33 x10E3/uL
ALANINE AMINOTRANSFERASE [3]: 58.67 u/L
ALBUMIN [3]: 4.3 G/DL
ALKALINE PHOSPHATASE [3]: 350.33 u/L
ASPARTATE AMINOTRANSFERASE [3]: 86.33 u/L
BLOOD UREA NITROGEN [3]: 17.33 mg/dL
CARBON DIOXIDE [3]: 33.33 mmol/L
CHLORIDE [3]: 99 MEQ/L
CHOLESTEROL [3]: 100.67 mg/dL
CREATINE PHOSPHOKINASE [3]: 190.67 u/L
CREATININE [3]: 0.21 mg/dL
GLUCOSE [3]: 155.33 mg/dL
LACTATE DEHYDROGENASE [3]: 170.67 u/L
LIPASE [3]: 9.67 u/L
PHOSPHORUS [3]: 12.27 mg/dL
POTASSIUM [3]: 7.02 MEQ/L
SODIUM [3]: 145.6 MEQ/L
TOTAL BILIRUBIN [3]: 0.23 mg/dL
TOTAL PROTEIN [3]: 6.23 G/DL
URIC ACID [3]: 1.33 mg/dL
